Experimental data: patent publication US9839648B2, “Combined anti-acid-fast bacterial agent, screening method for anti-acid-fast bacterial agents, and activity inhibitor of WecA or ortholog thereof” (MICROBIAL CHEMISTRY RESEARCH FOUNDATION, priority 2013, dated 2017)
In brackets after ≈: the same amount, converted by molar mass.

Legend:
Bacillus subtilis 168 = test: MIC by agar dilution method (other than Mycobacteria); type: cell-based; conditions: Mueller-Hinton agar, 37° C., 18 hours
[1] = tested on: Staphylococcus aureus FDA209P; test: as above; type: cell-based
Mycobacterium bovis BCG = test: microbe, parasite or virus in culture; type: cell-based; conditions: Mycobacterium tuberculosis variant bovis BCG
TagO = biological target: T1, TagO (Bacillus subtilis, UniProt O34753); test: Measurement of TagO activity with disruption liquid of 168/pHYcat-tagO cells; type: biochemical; conditions: compared with caprazamycin B, tunicamycin, vancomycin, levofloxacin; FIG. 9A
T1 construct: using disruption liquids of bacterial cells of the 168/pHYcat-mraY strain and the 168/pHYcat-tagO highly expressing these enzymes; expressed in transfected cells; host or cells: Bacillus subtilis 168 carrying plasmid pHYcat-tagO; supernatant of sonicated cells
Method: The activities of enzymes MraY and TagO were measured in the following manner using disruption liquids of bacterial cells of the 168/pHYcat-mraY strain and the 168/pHYcat-tagO highly expressing these enzymes and produced in Test Example 3-2.
As a control, tunicamycin, vancomycin and levofloxacin were tested similarly.
The bacterial cells were cultured in an LB medium until logarithmic growth phase (OD600=0.4) and then collected through centrifuging (5,000 rpm, 10 min), followed by washing twice with a TMS buffer (50 mM Tris-HCl (pH 7.5), 625 mM sucrose, 10 mM MgCl2, 5 mM 3-mercapto-1,2-propanediol, 1 mM PMSF).
Next, the precipitate was re-suspended in a TMS buffer having a volume 1/40 the initial volume, and the bacterial cells were disrupted through probe sonication (where the following procedure was repeated 10 times on ice: disrupting them for 30 sec and leaving them stand still for 30 sec). […]
The TagO activity was measured by allowing 0.02 mL of the following reaction mixture to react at 30° C. for 1 hour.
Next, the lower layer containing the reaction product was analyzed through thin-layer chromatography (TLC, using as a developing solvent chloroform:methanol:water:concentrated aqueous ammonia=65:35:4:4) and autoradiography, to thereby calculate the enzymatic activity of TagO as a rate with respect to that of the control. […]

[2] = tested on: B. subtilis 168/pHYcat-tagO; test: MIC by microbroth dilution method, tagO highly expressing strain
[3] = tested on: B. subtilis 168 (parent strain); test: MIC by microbroth dilution method, parent strain
Staph. aureus MRSA No. 5 = test: MIC by agar dilution method (other than Mycobacteria)
[4] = tested on: B. subtilis 168/pHYcat-mraY; test: MIC by microbroth dilution method, mraY highly expressing strain
[5] = tested on: Enterococcus faecalis JCM 5803; test: MIC by agar dilution method (other than Mycobacteria); type: cell-based; conditions: JCM5803, Mueller-Hinton agar, 37° C., 18 hours
Bacillus subtilis PCI219 = test: as above; type: cell-based; conditions: Mueller-Hinton agar, 37° C., 18 hours
[6] = tested on: Streptococcus pneumoniae S-223; test: as above; type: cell-based
Str. pneumoniae CR-2 = test: as above
Escherichia coli K-12 = test: as above; type: cell-based; conditions: K12, Mueller-Hinton agar, 37° C., 18 hours
B. subtilis 168 strain = type: cell-based, Bacillus subtilis; conditions: [14C(U)]glycerol, FIGS. 7A, 7C
[7] = biological target: WecA of Mycobacterium smegmatis (Mycolicibacterium smegmatis, UniProt A0R211); test: biochemical
[8] = tested on: B. subtilis CPZB-resistant strain; test: MIC by microbroth dilution method, CPZB-resistant strain
[9] = tested on: Mycobacterium tuberculosis H37Rv; test: MIC by agar dilution method (Mycobacteria); type: cell-based; conditions: 7H10 agar, 37° C., 2 to 14 days
Method: The MIC for Mycobacteria was measured by an agar dilution method.

[10] = tested on: Ent. faecalis NCTC12203 (VRE); test: MIC by agar dilution method (other than Mycobacteria); conditions: Enterococcus faecalis, 18 h
B. subtilis 168/pHYcatA = test: MIC by microbroth dilution method, control strain with pHYcat

With `CCCCc1ccc(NC(=O)C2=CCN(C)[C@@H]([C@H](O[C@@H]3O[C@H](CN)C(O)C3O)[C@H]3O[C@@H](n4ccc(=O)[nH]c4=O)C(O)C3O)C(=O)N2C)cc1` (stereo partly drawn) [CPZEN-45] the MIC (Bacillus subtilis 168) was 4 µg/mL (≈ 5.81 µM), the MIC ([1]; Staphylococcus aureus FDA209P, agar dilution, Mueller-Hinton agar, 37° C., 18 hours) was 12.5 µg/mL (≈ 18.1 µM) and the “antibacterial activity (in words)” value ([1]; Staphylococcus aureus FDA209 strain, WecA or ortholog not essential for growth) was “no antibacterial activity”. The MIC (Mycobacterium bovis BCG) was 2 µg/mL (≈ 2.9 µM), the “enzymatic activity of TagO (inhibition)” value (TagO) was “the most strongly” and the MIC ([2]; Bacillus subtilis) was 64 µg/mL (≈ 92.9 µM). The MIC ([3]; Bacillus subtilis, 16 h) was 4 µg/mL (≈ 5.81 µM), the “antibacterial activity (in words)” value (Staph. aureus MRSA No. 5; Staph. aureus MRSA No. 5 strain, WecA or ortholog not essential for growth) was “no antibacterial activity” and the MIC (Staph. aureus MRSA No. 5; Staphylococcus aureus, MRSA, 18 h) was 100 µg/mL (≈ 145 µM). For the same molecule, the MIC ([4]; Bacillus subtilis) was 8 µg/mL (≈ 11.6 µM), the MIC [5] was 8 µg/mL (≈ 11.6 µM) and the MIC (Bacillus subtilis PCI219) was 1.56 µg/mL (≈ 2.27 µM). The MIC ([6]; S223, Streptococcus pneumoniae S-223, agar dilution, Mueller-Hinton agar, 37° C., 18 hours) was 16 µg/mL (≈ 23.2 µM), the “antibacterial activity (in words)” value ([6]; Streptococcus pneumoniae S-223 strain, has no WecA or ortholog) was “no antibacterial activity” and the “antibacterial activity (in words)” value (Str. pneumoniae CR-2; Str. pneumoniae CR-2 strain, has no WecA or ortholog) was “no antibacterial activity”. The MIC (Str. pneumoniae CR-2; Streptococcus pneumoniae, CR2, 18 h) was 128 µg/mL (≈ 186 µM), the MIC (Escherichia coli K-12) was over 100 µg/mL and the “incorporation into bacterial cells of glycerol (synthesis of teichoic acid)” value (B. subtilis 168 strain) was “inhibited”. For the same molecule, the IC50 [7] was 6.39 nM, the MIC ([8]; Bacillus subtilis, 16 h) was 4 µg/mL (≈ 5.81 µM) and the MIC [9] was 1.56 µg/mL (≈ 2.27 µM). It also gave an MIC [10] of 8 µg/mL (≈ 11.6 µM) and an MIC (B. subtilis 168/pHYcatA; Bacillus subtilis, 168/PHYCATA) of 8 µg/mL (≈ 11.6 µM).

For `CN[C@H](CC(C)C)C(=O)N[C@H]1C(=O)N[C@@H](CC(N)=O)C(=O)N[C@H]2C(=O)N[C@H]3C(=O)N[C@H](C(=O)N[C@H](C(=O)O)c4cc(O)cc(O)c4-c4cc3ccc4O)[C@H](O)c3ccc(c(Cl)c3)Oc3cc2cc(c3O[C@@H]2O[C@H](CO)[C@@H](O)[C@H](O)[C@H]2O[C@H]2C[C@](C)(N)[C@H](O)[C@H](C)O2)Oc2ccc(cc2Cl)[C@H]1O` [vancomycin, reference compound], the MIC ([2]; Bacillus subtilis) was 1 µg/mL (≈ 0.69 µM), the MIC ([3]; Bacillus subtilis, 16 h) was 0.25 µg/mL (≈ 0.173 µM) and the MIC ([4]; Bacillus subtilis) was 0.5 µg/mL (≈ 0.345 µM). For the same molecule, the MIC ([8]; Bacillus subtilis, 16 h) was 0.25 µg/mL (≈ 0.173 µM) and the MIC (B. subtilis 168/pHYcatA; Bacillus subtilis, 168/PHYCATA) was 0.5 µg/mL (≈ 0.345 µM).

tunicamycin [reference compound] gave an MIC ([2]; B. subtilis 168/pHYcat-tagO (tagO highly expressing), microbroth dilution, LB medium) of 16 µg/mL, an MIC ([3]; B. subtilis 168 (parent strain), microbroth dilution, LB medium, 37° C., 16 hours) of 0.25 µg/mL and an MIC ([4]; B. subtilis 168/pHYcat-mraY (mraY highly expressing), microbroth dilution, LB medium) of 1 µg/mL. It also gave an MIC ([8]; B. subtilis CPZB-resistant strain, microbroth dilution, LB medium, 37° C., 16 hours) of 4 µg/mL and an MIC (B. subtilis 168/pHYcatA; B. subtilis 168/pHYcatA (control strain), microbroth dilution, LB medium) of 1 µg/mL.
